# Data: patent publication US20100311798A1, “2-AMINOOXAZOLINES AS TAAR1 LIGANDS” (priority 2009, published 2010)
# Molecular target: mouse TAAR1 (Mus musculus, UniProt Q923Y8)
# Assay: Radioligand binding to TAAR1 in membranes of stably transfected HEK293 cells
# Chain of mouse TAAR1 (Q923Y8 whole entry): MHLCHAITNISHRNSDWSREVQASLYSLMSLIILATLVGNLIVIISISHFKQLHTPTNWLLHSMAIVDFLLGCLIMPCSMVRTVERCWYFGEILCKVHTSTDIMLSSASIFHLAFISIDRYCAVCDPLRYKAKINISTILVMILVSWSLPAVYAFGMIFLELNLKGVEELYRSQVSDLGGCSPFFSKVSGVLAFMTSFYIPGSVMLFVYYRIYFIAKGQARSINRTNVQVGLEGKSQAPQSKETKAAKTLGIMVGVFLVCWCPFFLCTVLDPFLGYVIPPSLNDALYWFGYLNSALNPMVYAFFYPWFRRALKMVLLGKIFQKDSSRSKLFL
Structure (SMILES),Kd [nM],Ki [nM]
c1ccc2c(c1)CCCC2C1=NCCN1 (racemic) [reference compound],60,
"CC1OC(N)=N[C@H]1CCc1ccccc1 (single isomer, unassigned) [Example 8]",,1.7
"CC1OC(N)=N[C@H]1Cc1ccccc1 (single isomer, unassigned) [Example 12]",,159
"C[C@@H]1OC(N)=N[C@@H]1CCc1ccccc1 [Example 7, (4R,5S)-5-Methyl-4-phenethyl-4,5-dihydro-oxazol-2-ylamine]",,27.3
"C[C@H]1OC(N)=N[C@H]1CCc1ccccc1 [Example 8a, (4S,5R)-5-methyl-4-phenethyl-4,5-dihydro-oxazol-2-ylamine]",,3.1
"CCC1OC(N)=N[C@H]1CCc1ccccc1 (stereo partly drawn) [Example 9, (S)-5-Ethyl-4-phenethyl-4,5-dihydro-oxazol-2-ylamine]",,17.1
"C[C@H]1OC(N)=N[C@H]1CCCc1ccccc1 [Example 11, (4S,5R)-5-Methyl-4-(3-phenyl-propyl)-4,5-dihydro-oxazol-2-ylamine]",,0.9
"C[C@@H]1OC(N)=N[C@H]1CCCc1ccccc1 [Example 11a, (4S,5S)-5-methyl-4-(3-phenyl-propyl)-4,5-dihydro-oxazol-2-ylamine]",,5.8
"C[C@H]1OC(N)=N[C@H]1Cc1ccccc1 [Example 12a, (4S,5R)-4-benzyl-5-methyl-4,5-dihydro-oxazol-2-ylamine]",,175
"C[C@@H]1OC(N)=N[C@H]1CCC1CCCCC1 [Example 13, (4S,5S)-4-(2-Cyclohexyl-ethyl)-5-methyl-4,5-dihydro-oxazol-2-ylamine]",,13.3
"C[C@H]1OC(N)=N[C@H]1CCC1CCCCC1 [Example 13a, (4S,5R)-4-(2-cyclohexyl-ethyl)-5-methyl-4,5-dihydro-oxazol-2-ylamine]",,52.7
"C[C@H]1OC(N)=N[C@H]1CCc1ccc(Cl)cc1 [Example 14, (4S,5R)-4-[2-(4-Chloro-phenyl)-ethyl]-5-methyl-4,5-dihydro-oxazol-2-ylamine]",,0.7
"C[C@@H]1OC(N)=N[C@H]1CCc1ccc(Cl)cc1 [Example 14a, (4S,5S)-4-[2-(4-chloro-phenyl)-ethyl]-5-methyl-4,5-dihydro-oxazol-2-ylamine]",,1.8
"C[C@H]1OC(N)=N[C@H]1CCc1ccc(Cl)c(Cl)c1 [Example 15, (4S,5R)-4-[2-(3,4-Dichloro-phenyl)-ethyl]-5-methyl-4,5-dihydro-oxazol-2-ylamine]",,0.6
"C[C@@H]1OC(N)=N[C@H]1CCc1ccc(Cl)c(Cl)c1 [Example 15a, (4S,5S)-4-[2-(3,4-dichloro-phenyl)-ethyl]-5-methyl-4,5-dihydro-oxazol-2-ylamine]",,8
"C[C@H]1OC(N)=N[C@H]1CCCc1ccc(Cl)cc1 [Example 17, (4S,5R)-4-[3-(4-Chloro-phenyl)-propyl]-5-methyl-4,5-dihydro-oxazol-2-ylamine]",,0.3
